What is called Km is the substrate concentration at which the rate is half of its maximum.

The target in the experiment is T1, recombinant human glucocerebrosidase produced in baculovirus/SF9 system, enzyme in the culture media (Homo sapiens, UniProt P04062).
T1 construct: made in house; host or cells: Spodoptera frugiperda SF9 cells infected with recombinant baculovirus (AcNPV, pAc373/GC)
T1 sequence (P04062 40-536): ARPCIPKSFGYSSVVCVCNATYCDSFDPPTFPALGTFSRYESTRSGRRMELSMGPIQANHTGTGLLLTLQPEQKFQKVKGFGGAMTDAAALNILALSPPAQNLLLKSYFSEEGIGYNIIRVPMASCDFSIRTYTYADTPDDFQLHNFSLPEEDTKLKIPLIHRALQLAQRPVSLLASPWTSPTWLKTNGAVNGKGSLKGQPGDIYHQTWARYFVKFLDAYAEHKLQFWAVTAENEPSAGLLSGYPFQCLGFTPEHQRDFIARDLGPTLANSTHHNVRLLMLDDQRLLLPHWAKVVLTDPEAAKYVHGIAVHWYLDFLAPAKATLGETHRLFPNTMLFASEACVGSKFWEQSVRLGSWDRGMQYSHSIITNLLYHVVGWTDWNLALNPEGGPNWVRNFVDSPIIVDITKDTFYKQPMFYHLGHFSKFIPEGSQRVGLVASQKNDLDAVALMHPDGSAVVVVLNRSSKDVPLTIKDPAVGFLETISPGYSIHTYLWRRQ
As to the kind of experiment: Km determination, β-glucosidase activity with 4MUGP. It counts as biochemical. As to conditions: pH 5.9, 100 mM potassium phosphate, 0.15% Triton X-100, 0.125% sodium taurocholate. The protocol: Glucocerebrosidase assays: For pH profile and inhibition studies, glucocerebrosidase activity was measured using 100 mM potassium phosphate buffer containing 0.15% Triton X-100, 2.5 μl of β-D-[1-^14 C] glucocerebroside (7.5 mg/ml in sodium taurocholate at 50 mg/ml), and the sample in the total volume of 200 ul. Preincubations with conduritol-B-epoxide were for 30 min at 37° C. […] Purification of recombinant glucocerebrosidase was also monitored using 4MUGP.

With `Cc1cc(=O)oc2cc(O[C@@H]3O[C@H](CO)[C@@H](O)[C@H](O)[C@H]3O)ccc12` [4MUGP, 4-methylumbellifery-β-D-glucopyranoside], the Km came out at 3.3 mM.

These data come from patent publication US6074864A, “Cloned DNA for synthesizing unique glucocerebrosidase” (The United States of America as represented by the …, priority 1994, dated 2000).
